Test results from publication PMC10071561, “Conformation-dependent ligand hot spots in the spliceosomal RNA helicase BRR2” (Acta Crystallographica. Section D, Structural Biology, 2023).
Where two headings read alike, the source gives them in different places.

Assays:
[1] = biological target: T1, hBRR2 (spliceosomal RNA helicase BRR2) (Homo sapiens, UniProt O75643); assay: co-crystal structure (X-ray, […] Å); format: binding; design: gene SNRNP200; hBRR2T1, residues 395-2129
[2] = biological target: T1, hBRR2 (spliceosomal RNA helicase BRR2); assay: crystal soaking, X-ray structure ([…] Å); also U4/U6 unwinding inhibition; format: biochemical; design: gene SNRNP200; hBRR2T1 (residues 395-2129), N-terminal His tag not cleaved, baculovirus/High Five insect cells; isolated, without hJab1deltaC, in U4*/U6 unwinding assay
[3] = biological target: T1, hBRR2 (spliceosomal RNA helicase BRR2); assay: as above; format: biochemical; design: gene SNRNP200; hBRR2T1 (residues 395-2129), N-terminal His tag not cleaved, baculovirus/High Five insect cells; isolated, without hJab1deltaC, in U4*/U6 unwinding assay; remark: listed apart in the source

T1 sequence (O75643 395-2129): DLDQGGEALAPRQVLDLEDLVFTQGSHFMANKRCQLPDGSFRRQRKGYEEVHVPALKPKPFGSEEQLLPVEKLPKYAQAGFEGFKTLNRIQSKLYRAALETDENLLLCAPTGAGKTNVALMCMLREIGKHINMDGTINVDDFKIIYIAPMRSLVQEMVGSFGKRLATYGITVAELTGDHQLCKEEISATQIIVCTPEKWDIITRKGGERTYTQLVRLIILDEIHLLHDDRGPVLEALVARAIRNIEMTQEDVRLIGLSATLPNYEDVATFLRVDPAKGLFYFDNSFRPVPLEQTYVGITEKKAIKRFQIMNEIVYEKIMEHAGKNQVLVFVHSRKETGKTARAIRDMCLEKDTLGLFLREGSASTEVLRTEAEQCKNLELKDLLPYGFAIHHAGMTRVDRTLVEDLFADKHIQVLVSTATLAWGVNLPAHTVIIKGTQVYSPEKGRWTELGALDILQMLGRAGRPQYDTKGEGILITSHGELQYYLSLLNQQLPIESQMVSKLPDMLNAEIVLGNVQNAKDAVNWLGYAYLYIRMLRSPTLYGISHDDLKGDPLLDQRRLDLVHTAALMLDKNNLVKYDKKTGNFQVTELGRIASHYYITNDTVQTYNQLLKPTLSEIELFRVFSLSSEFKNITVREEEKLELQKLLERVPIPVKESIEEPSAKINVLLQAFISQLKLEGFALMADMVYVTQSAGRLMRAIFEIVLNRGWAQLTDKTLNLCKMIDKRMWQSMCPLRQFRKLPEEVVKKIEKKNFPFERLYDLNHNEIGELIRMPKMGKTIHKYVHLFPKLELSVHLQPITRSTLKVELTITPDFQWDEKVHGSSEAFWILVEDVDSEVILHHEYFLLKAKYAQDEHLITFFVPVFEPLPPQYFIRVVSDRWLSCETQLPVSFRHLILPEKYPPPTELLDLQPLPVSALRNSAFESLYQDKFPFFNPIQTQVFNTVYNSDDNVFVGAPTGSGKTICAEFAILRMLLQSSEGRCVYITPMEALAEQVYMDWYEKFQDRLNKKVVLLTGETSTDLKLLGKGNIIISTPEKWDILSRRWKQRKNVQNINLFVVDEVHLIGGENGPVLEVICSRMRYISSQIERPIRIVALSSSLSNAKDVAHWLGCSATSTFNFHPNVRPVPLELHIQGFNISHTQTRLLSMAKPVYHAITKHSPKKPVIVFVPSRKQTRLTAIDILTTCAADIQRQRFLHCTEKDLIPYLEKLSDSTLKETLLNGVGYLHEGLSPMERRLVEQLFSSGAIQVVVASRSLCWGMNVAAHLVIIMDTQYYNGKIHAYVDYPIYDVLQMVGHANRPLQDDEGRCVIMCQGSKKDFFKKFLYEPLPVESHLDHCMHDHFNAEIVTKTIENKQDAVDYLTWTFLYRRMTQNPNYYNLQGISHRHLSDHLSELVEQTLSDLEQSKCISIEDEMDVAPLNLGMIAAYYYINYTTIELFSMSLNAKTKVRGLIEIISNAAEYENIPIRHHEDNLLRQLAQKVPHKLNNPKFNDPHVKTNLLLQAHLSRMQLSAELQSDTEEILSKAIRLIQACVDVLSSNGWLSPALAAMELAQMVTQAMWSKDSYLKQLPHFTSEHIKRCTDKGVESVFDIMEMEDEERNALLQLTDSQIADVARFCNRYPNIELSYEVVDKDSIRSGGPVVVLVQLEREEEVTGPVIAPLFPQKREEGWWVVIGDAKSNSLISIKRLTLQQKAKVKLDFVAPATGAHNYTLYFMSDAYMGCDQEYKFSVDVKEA

Compound: [H]/N=C(/N)NS(=O)(=O)c1ccc(N)cc1 [SG, 4-amino-N-(aminoiminomethyl)benzolsulfonamide]
- co-crystal structure (X-ray, 2.87 Å) [1]: In this hBRR2^T1 crystal structure, sulfaguanidine is positioned at the interface between the two helicase cassettes

Compound: O=S(=O)(NO)c1ccccc1 [compound 24, Piloty's acid]
- IC50 [2]: > 90 µM

Compound: O=S(=O)(N=C(S)S)c1ccccc1 [compound 50]
- IC50 [3]: > 1000 µM
